In US20110300198A1, “HYDROCOLLOID - ESSENTIAL OIL PATCHES” (priority 2010, published 2011):
Structures can show the parent of a compound that is named as a salt. Marks after values point to notes of the source that are not given here. Values belong to the compound of their own block, whether it stands above or below them.

Key:
[1] = In-vivo experiment with WAX column, constituents in blood; set-up: species or system rat; conditions: 7.5% lavender oil patch on abdomen; split injection
Source text: Male Sprague-Dawley rats, weighing 300-350 g, were used in the studies (Harlan, Rehovot, Israel). The experimental protocols were approved by the Hebrew University of Jerusalem Committee on the Use and Care of Animals. Rats were maintained under specified-pathogen-free (SPF) conditions and were allowed to acclimate to the environment for at least 7 days before their use in the study. Rats were anesthetized and the fur on their stomach shaved prior to exposure. Gum karaya patches with and without lavender essential oil were applied to the rat's stomach skin. Each rat was housed in an individual cage in order to prevent oral contamination of the essential oil by one rat eating another's patch. Blood samples (0.5 ml) were taken at 0, 12, 24, 36, 48 and 60 h from a nick at the tip of tail to determine contents of essential-oil components. Rats were restrained and the tail was gently massaged to facilitate blood collection. Blood samples were collected in vials containing 0.1 ml heparin (100 kU, Sigma). A 10-μl volume of aqueous linalyl isovalerate stock solution was added as an internal standard to each blood sample and samples were stored at −80° C. […] Urine samples were similarly analyzed by gas chromatography (GC). […]
Patches that included lavender essential oil were adhered to the abdomen skin for 60 h. […] Between 12 and 36 h, a similar, non-significant change in levels was detected. […]

[2] = cited from earlier work
[3] = In-vivo experiment with HP-5 column, constituents in blood; set-up: species or system rat; conditions: male, Sprague-Dawley, rat, in vivo
Source text: Male Sprague-Dawley rats, weighing 300-350 g, were used in the studies (Harlan, Rehovot, Israel). The experimental protocols were approved by the Hebrew University of Jerusalem Committee on the Use and Care of Animals. Rats were maintained under specified-pathogen-free (SPF) conditions and were allowed to acclimate to the environment for at least 7 days before their use in the study. Rats were anesthetized and the fur on their stomach shaved prior to exposure. Gum karaya patches with and without lavender essential oil were applied to the rat's stomach skin. Each rat was housed in an individual cage in order to prevent oral contamination of the essential oil by one rat eating another's patch. Blood samples (0.5 ml) were taken at 0, 12, 24, 36, 48 and 60 h from a nick at the tip of tail to determine contents of essential-oil components. Rats were restrained and the tail was gently massaged to facilitate blood collection. Blood samples were collected in vials containing 0.1 ml heparin (100 kU, Sigma). A 10-μl volume of aqueous linalyl isovalerate stock solution was added as an internal standard to each blood sample and samples were stored at −80° C. After 60 h, patches were removed and the application site was wiped with 70% alcohol. Animals were sacrificed and the patch of stomach skin to which the essential oil patch had been applied was removed and minced into small pieces. The skin pieces were placed in 1 ml of ethanol containing linalyl isovalerate as the internal standard and sonicated for 30 min after heating to 50° C. A 10-μl aliquot was then injected straight into the gas chromatograph. A urine sample (0.5 ml) was obtained from the bladder immediately after sacrifice. Urine samples were similarly analyzed by gas chromatography (GC).
Blood (0.5 ml) or phosphate buffer (0.5 ml) was collected at t=0, 12, 24, 36, 48 and 60 h. Blood samples were placed in Eppendorf heparin-coated glass vials (Agilent) by heparin-washed syringe, which were sealed with septa and screw caps. Each vial contained 100 μl of heparin and blood samples were frozen at −80° C. for storage. Prior to analysis, the blood or phosphate buffer was thawed to room temperature, a 10-μl volume of internal standards (6.5 mg linalyl isovalerate and 6.5 mg geranyl formate in 25 ml acetonitrile) was added to the vial and then the mixture was vortexed. The vials were tightly capped using a clear cap with septum. The septa were pre-punctured immediately before analysis using a needle to facilitate the insertion of the fiber sheath. The fiber sheath was inserted through the septum, and positioned to expose the fiber in the center of the headspace. The vial was placed on a heating block to maintain temperature at a constant 50° C. and the solid-phase microextraction (SPME) assembly was clamped securely. Absorption time was 30 min. No stirring was required. After absorption, the SPME fiber sheath was immediately transferred to the GC injector for desorption for 5 min and GC analysis.
GC was performed on an Agilent 7890A gas chromatograph equipped with a split/splitless capillary injector, flame ionization detection (FID) system and GC Chem Station (Version B.03.01; Agilent Technologies 2007). Chromatography was carried out on a WAX or HP-5 column (30 m×0.32 mm×0.25 μm). The GC operating conditions were: splitless or split 1:40 injector 240° C., oven 50° C. for 1 min and then 10° C. min^−1 to 160° C., then 25° C. min^−1 to 240° C. and held for 6 min; the carrier gas was hydrogen.
In this experiment, patches containing lavender essential oil were adhered to the abdomen area. Patches without essential oil served as blanks. […] Detection under splitless conditions facilitated the detection of linalyl acetate, linalool, camphor, borneol and α-terpineol, the latter two being additional constituents detected only under these conditions. High concentrations of linalool, borneol and camphor were detected, in comparison to low levels of terpeneol and linalyl acetate. […]

[4] = Ex-vivo transfer of essential-oil constituents through the skin in Franz diffusion cells; format: in vitro ADME, rat; conditions: for Accumulated concentration transferred through the skin: from gum karaya-Lavandula angustifolia essential oil patch (7.5% oil); for Accumulated concentration diffused through the skin: mixture of Lavandula angustifolia essential oil and almond oil rubbed on the skin
Method: Ex-vivo release studies were performed in Franz diffusion cells (FCs) (PermeGear, Hellertown, Pa.). Stomach skin pieces (1.2 cm×1.2 cm) from a male rat, which were stored in the freezer for 1 month, were thawed at room temperature and placed in glass FCs. The surface area for absorption was 0.64 cm2. The FCs were thermoregulated with a water jacket at 32° C. The 4.5-ml volume of the receptor chamber of the FC was filled with a receptor solution containing 5% (w/v) bovine serum albumin (BSA) diluted with phosphate buffer pH 7.4. […] The receptor solution was continuously agitated with a magnetic stirrer. During the experiments, the donor compartments and sampling arms were sealed to prevent evaporation. The fluid in the receptor chamber was removed after different periods of time (0, 6, 12, 24, 36 and 48 h) and replaced with fresh phosphate buffer solution. Samples were stored at 4° C. after sampling, prior to analysis. Samples were analyzed in a gas chromatograph (Agilent Technologies, Santa Clara, Calif.) with a WAX 30 m×0.32 mm×0.25 μm (Agilent) column.
Transdermal delivery of essential-oil components through rat skin from both lavender essential oil, which includes a high proportion of terpenoids, and Valencia orange essential oil, which includes a considerable amount of terpene, entrapped within gum-karaya-based patches, was examined. In addition to the regular patch adhered to the skin to be tested for essential-oil delivery by the traditional FCs and by in vivo tests (detailed below), another experiment was performed in which the skin was smeared with an almond-essential oil mixture, in order to partially imitate the situation in which the skin is massaged in an aromatherapy session. All experiments were conducted at ambient temperature and the inclusion of the essential oil as part of the almond oil-essential oil mixture (for the massage-like simulation) was equal in quantity and proportion to the inclusion of essential oil within the patch.

[5] = cited from earlier work; remark: listed apart in the source
[6] = Preliminary in-vivo experiment, constituents in blood (GC, WAX column); set-up: species or system rat; conditions: rat, in vivo
[7] = Decomposition of internal standards in blood and skin extract (GC, GC-MS); format: in vitro ADME, rat; conditions: for Stability in the blood: GC-MS
Method: Linalyl isovalerate and geranyl formate were tested for their suitability as internal standards for linalool and linalyl acetate using headspace (HS)-SPME. Linalyl isovalerate was chosen as the most appropriate internal standard on the basis of area formed under the peak. A stock solution of linalyl isovalerate in acetonitrile (25 mg L^−1) was further diluted with acetonitrile to produce an aqueous solution of linalyl isovalerate (5 mg L^−1). A 10-μl volume of the aqueous linalyl isovalerate stock solution was added as the internal standard to each sample. Standard was prepared from 0.5 ml of blank blood, 10 μl internal standard (0.0026 mg linalyl isovalerate in 25 ml acetonitrile) and an appropriate dilution of lavender oil in 10 μl acetonitrile. Lavender oil was first dissolved in acetonitrile (625 mg L^−1) and further diluted with acetonitrile to make intermediate standards (0.5, 1, 5, 25 and 125 mg L^−1). The calibration curves were plotted using the peak area ratio of linalool (the main constituent of lavender oil) and linalyl isovalerate vs. linalool concentration. A standard stock solution of lavender oil (625 mg L^−1) was prepared in acetonitrile. Calibration standards for determination of linear dynamic range were prepared by serial dilutions with acetonitrile. For quantitative analysis of lavender oil in the blood, working standard solutions containing 0.5, 1, 5, 25 and 125 mg L^−1 of lavender were prepared by dilution of the 625 mg L^−1 solution with acetonitrile. […] The compounds absorbed on the fiber were detached and analyzed by exposing the fiber for 5 min in the injection port.
Two standards were checked for their suitability to this study: linalyl isovalerate and geranyl formate. […] Thus, although it is not possible to quantify linalool since the lavender essential oil may not be its only source, it is possible to quantify other components of lavender, and linalyl isovalerate was chosen to serve as the standard in the blood.

Compound: CC12CCC(CC1=O)C2(C)C (stereo not drawn) [Camphor]
- Level in blood after 60 h [1]: no traces
- Log P [2]: about 3
- concentration at 60 h [3]: 35 ng/mL
- % diffused (of initial amount of entrapped essential oil) ([4]; Almond-lavandula mixture, 0 h): 0.00^a %
- % diffused (of initial amount of entrapped essential oil) ([4]; Almond-lavandula mixture, 6 h): 0.01 ± 0.01^a %
- % diffused (of initial amount of entrapped essential oil) ([4]; Almond-lavandula mixture, 12 h): 1.15 ± 1.26^a %
- % diffused (of initial amount of entrapped essential oil) ([4]; Almond-lavandula mixture, 24 h): 2.28 ± 0.08^a %
- % diffused (of initial amount of entrapped essential oil) ([4]; Lavandula patch, 0 h): 0.00^a %
- % diffused (of initial amount of entrapped essential oil) ([4]; Lavandula patch, 6 h): 0.70 ± 0.04^b %
- % diffused (of initial amount of entrapped essential oil) ([4]; Lavandula patch, 12 h): 1.02 ± 0.01^c %
- % diffused (of initial amount of entrapped essential oil) ([4]; Lavandula patch, 24 h): 2.10 ± 0.32^d %
- Accumulated concentration transferred through the skin ([4]; 6 h): 0.51 ± 0.33^a mg/L
- Accumulated concentration transferred through the skin ([4]; 12 h): 0.74 ± 0.02^b mg/L
- Accumulated concentration transferred through the skin ([4]; 24 h): 1.53 ± 0.13^c mg/L
- Accumulated concentration diffused through the skin ([4]; 6 h): 0.01 ± 0.03^a mg L^−1
- Accumulated concentration diffused through the skin ([4]; 12 h): 0.89 ± 0.98^a mg L^−1
- Accumulated concentration diffused through the skin ([4]; 24 h): 1.78 ± 0.06^a mg L^−1
- Calculated steady-state flux ([4]; rubbing in a mixture with almond oil): 5.7×10^−4 mg.cm^−2 h^−1
- Calculated steady-state flux ([4]; transferred from a lavender essential oil patch): 4.3×10^−4 mg.cm^2 h^−1
- Solubility in water [5]: relatively high
- Detection in blood [6]: No levels of camphor were detected

Compound: C=C(C)[C@H]1CC=C(C)CC1 [d-Limonene]
- Log P [2]: about 4

Compound: CC(C)=CCC/C(C)=C/COC=O [geranyl formate]
- Stability in the blood [7]: decomposes in the blood

Compound: CC1=CCC(C(C)(C)O)CC1 (stereo not drawn) [α-Terpeneol, α-Terpineol]
- Level in blood from 12 h onwards [3]: 5 to 9 ng/mL

Further lines, results first:

- concentration at 60 h [3]: 31 ng/mL
Compound: CC1(C)C2CCC1(C)C(O)C2 (stereo not drawn) [borneol, Borneol]

- Stability in the blood [7]: decomposes in the blood
- Stability in the skin extract ([7]; skin with essential oil-containing patch): did not decompose
Compound: C=CC(C)(CCC=C(C)C)OC(=O)CC(C)C (stereo not drawn) [linalyl isovalerate]
